For orientation: MIC means the least concentration at which growth counts as inhibited. A high value points to weaker potency.

For 9 molecules, MIC results are on record in DBAASP.

Values after ≈ are worked out from the molar mass of the structure shown. Bounds are passed on as bounds.

What all share (test): ≥ marks a high value that may be exact or a test limit, other limits are often not marked, values filed in µg/mL are converted to µM
Experiment [1] deals with Escherichia coli ATCC 25922.
The subject of experiment [2] is Pseudomonas aeruginosa ATCC 27853.
Experiment [3] deals with Xanthomonas axonopodis pv. glycines ISBF 327.
Experiment [4] relates to Cronobacter sakazakii DPC 6440.
Experiment [5] concerns Listeria monocytogenes LO28.
Experiment [6] relates to Erwinia amylovora PMV 6076.
Experiment [7] deals with Pseudomonas syringae pv. syringae EPS 94.
The test system of experiment [8] is Xanthomonas campestris pv. Vesicatoria 2133-2.
Experiment [9] has as its system Salmonella enterica subsp. enterica serovar Typhi DMST 22842.
In experiment [10] the test system is Staphylococcus aureus ATCC 25923.
Experiment [11] has as its system Staphylococcus epidermidis ATCC 12228.
Experiment [12] concerns Escherichia coli BL21AI.
Experiment [13] concerns Micrococcus luteus ATCC 10240.
For experiment [14], the system named is Cronobacter muytjensii ATCC 51329.
Experiment [15] concerns Cronobacter sakazakii ATCC BAA-894.
Experiment [16] has as its system Cronobacter sakazakii DSM 4485.
Experiment [17] relates to Escherichia coli NCIMB 11843.
In experiment [18] the test system is Klebsiella pneumoniae NCIMB 13218.
The test system of experiment [19] is Pseudomonas fluorescens NCIMB 9046.
The subject of experiment [20] is Salmonella enterica subsp. enterica serovar Typhimurium LT2.
Experiment [21] has as its system Staphylococcus aureus NCTC 8325-4.
Experiment [22] deals with Staphylococcus aureus Newman.
Experiment [23] concerns Staphylococcus aureus RF122.
The subject of experiment [24] is Staphylococcus aureus RN4220.
For experiment [25], the system named is Staphylococcus aureus SA113.

For `CC[C@H](C)[C@H](NC(=O)[C@H](CCCN=C(N)N)NC(=O)[C@H](CCCCN)NC(=O)[C@H](CC(C)C)NC(=O)[C@H](CO)NC(=O)[C@@H](NC(=O)[C@@H](NC(=O)[C@H](CCCCN)NC(=O)[C@@H](NC(=O)CNC(=O)[C@@H](NC(=O)[C@H](CO)NC(=O)[C@H](CC(C)C)NC(=O)[C@H](Cc1ccccc1)NC(=O)[C@H](CCSC)NC(=O)[C@H](CCCCN)NC(=O)[C@H](CCCCN)NC(=O)[C@@H](NC(=O)[C@H](CCC(N)=O)NC(=O)[C@H](Cc1cnc[nH]1)NC(=O)[C@H](Cc1ccccc1)NC(=O)[C@H](CCCCN)NC(=O)CN)[C@@H](C)CC)C(C)C)C(C)C)C(C)C)[C@@H](C)O)C(=O)N[C@@H](CCC(N)=O)C(=O)N[C@@H](Cc1ccccc1)C(=O)NCC(=O)N[C@@H](CC(=O)O)C(=O)N[C@@H](Cc1ccccc1)C(N)=O` [GKFHQIKKMFLSVGVKVTSLKRIQFGDF], the minimum inhibitory concentration (MIC) in [1] is 20 µM (≈ 64.8 µg/mL); in experiment [2], 20 µM (≈ 64.8 µg/mL); in experiment [3] it was 10 µM (≈ 32.4 µg/mL).

Take `CC[C@H](C)[C@H](NC(=O)[C@H](Cc1c[nH]c2ccccc12)NC(=O)[C@@H]1CCCN1C(=O)[C@H](CCCCN)NC(=O)[C@H](CCSC)NC(=O)[C@H](C)NC(=O)[C@@H](N)CCCCN)C(=O)N[C@@H](CCC(N)=O)C(=O)N1CCC[C@H]1C(=O)N[C@@H](CCCCN)C(=O)N[C@H](C(=O)N[C@@H](CCCCN)C(=O)N[C@H](C(=O)N[C@H](C(=O)N1CCC[C@H]1C(=O)N[C@@H](Cc1ccc(O)cc1)C(=O)N[C@H](C(=O)N[C@@H](CCCN=C(N)N)C(=O)N[C@@H](Cc1ccc(O)cc1)C(=O)N[C@@H](CC(C)C)C(=O)O)C(C)C)[C@@H](C)CC)C(C)C)[C@@H](C)O` [KAMKPWIQPKTKVIPYVRYL]: the minimum inhibitory concentration (MIC) in [4] and in experiment [5] was ≥ 39.1 µM throughout.

As for `CC[C@H](C)[C@H](NC(=O)[C@H](CCCCN)NC(=O)[C@H](CCCCN)NC(=O)[C@H](Cc1ccccc1)NC(=O)[C@H](CC(C)C)NC(=O)[C@H](CCCCN)NC(=O)[C@@H](N)CCCCN)C(=O)N[C@@H](CC(C)C)C(=O)N[C@@H](CCCCN)C(=O)N[C@@H](Cc1ccc(O)cc1)C(=O)N[C@@H](CC(C)C)C(=O)N[C@@H](C)C(=O)NCC(=O)N1CCC[C@H]1C(=O)N[C@@H](C)C(=O)N[C@@H](CCCCN)C(=O)N[C@@H](Cc1ccccc1)C(=O)N[C@@H](CC(C)C)C(=O)N[C@@H](Cc1cnc[nH]1)C(=O)N[C@@H](CO)C(=O)N[C@@H](C)C(=O)N[C@@H](CCCCN)C(=O)N[C@@H](CCCCN)C(=O)N[C@@H](CC(=O)O)C(=O)N[C@@H](CCC(=O)O)C(=O)N[C@@H](CC(C)C)C(=O)O` [KKLFKKILKYLAGPAKFLHSAKKDEL], the results for the MIC in experiment [6], in [7] and in experiment [8] were 3.54 µM (≈ 10.7 µg/mL), 8.66 µM (≈ 26.1 µg/mL) and 6.12 µM (≈ 18.5 µg/mL), respectively.

With `CC(C)[C@H](NC(=O)CNC(=O)[C@@H](N)CC(N)=O)C(=O)N[C@@H](CCC(N)=O)C(=O)N1CCC[C@H]1C(=O)N[C@@H](CCCCN)C(=O)N[C@@H](Cc1ccc(O)cc1)C(=O)N[C@@H](CCCCN)C(=O)N[C@@H](Cc1c[nH]c2ccccc12)C(=O)N[C@@H](Cc1c[nH]c2ccccc12)C(=O)N[C@@H](CCCCN)C(=O)N[C@@H](Cc1c[nH]c2ccccc12)C(=O)N[C@@H](Cc1c[nH]c2ccccc12)C(=O)N[C@@H](CCCCN)C(=O)N[C@@H](CCCCN)C(=O)N[C@@H](Cc1c[nH]c2ccccc12)C(=O)N[C@@H](Cc1c[nH]c2ccccc12)C(=O)N[C@@H](Cc1c[nH]c2ccccc12)C(N)=O` [NGVQPKYKWWKWWKKWWW], the MIC is 4.2 µM (≈ 11 µg/mL) in [1], 8.78 µM (≈ 23 µg/mL) in experiment [9], > 34.7 µM in experiment [10] and 8.78 µM (≈ 23 µg/mL) in experiment [11].

With `CC(C)[C@H](NC(=O)CNC(=O)[C@@H](N)CC(N)=O)C(=O)N[C@@H](CCC(N)=O)C(=O)N1CCC[C@H]1C(=O)N[C@@H](CCCCN)C(=O)N[C@@H](Cc1ccc(O)cc1)C(=O)N[C@@H](CCCN=C(N)N)C(=O)N[C@@H](Cc1c[nH]c2ccccc12)C(=O)N[C@@H](Cc1c[nH]c2ccccc12)C(=O)N[C@@H](CCCN=C(N)N)C(=O)N[C@@H](Cc1c[nH]c2ccccc12)C(=O)N[C@@H](Cc1c[nH]c2ccccc12)C(=O)N[C@@H](CCCN=C(N)N)C(=O)N[C@@H](CCCN=C(N)N)C(=O)N[C@@H](Cc1c[nH]c2ccccc12)C(=O)N[C@@H](Cc1c[nH]c2ccccc12)C(=O)N[C@@H](Cc1c[nH]c2ccccc12)C(=O)O` [NGVQPKYRWWRWWRRWWW], the MIC in [1] was > 33.3 µM; in experiment [9], ≥ 33.3 µM; in experiment [10], > 33.3 µM; in experiment [11], 33.3 µM (≈ 91 µg/mL).

For the molecule `CC[C@H](C)[C@H](NC(=O)[C@H](CCCN=C(N)N)NC(=O)[C@H](CCCN=C(N)N)NC(=O)[C@@H]1CCCN1C(=O)[C@@H]1CCCN1C(=O)[C@H](Cc1cnc[nH]1)NC(=O)[C@@H]1CCCN1C(=O)[C@H](CCCN=C(N)N)NC(=O)[C@@H]1CCCN1C(=O)[C@H](CC(C)C)NC(=O)[C@H](Cc1ccc(O)cc1)NC(=O)[C@@H]1CCCN1C(=O)[C@@H]1CCCN1C(=O)[C@H](CCCCN)NC(=O)[C@H](CC(=O)O)NC(=O)[C@@H](N)C(C)C)C(=O)N[C@@H](Cc1ccc(O)cc1)C(=O)N[C@@H](CC(N)=O)C(=O)N[C@@H](CC(N)=O)C(=O)N[C@@H](CCCN=C(N)N)C(=O)O` [VDKPPYLPRPHPPRRIYNNR], the minimal inhibitory concentration (MIC) was 25.7 µM (≈ 64 µg/mL) in experiment [12] and 12.9 µM (≈ 32 µg/mL) in [13].

For `CC(C)C[C@H](NC(=O)[C@H](C)NC(=O)[C@H](CCC(=O)O)NC(=O)[C@H](CC(N)=O)NC(=O)[C@H](CC(C)C)NC(=O)[C@@H](N)C(C)C)C(=O)N[C@@H](CC(C)C)C(=O)N[C@@H](CCCN=C(N)N)C(=O)O` [VLNEALLR], the MIC in experiment [14] was ≥ 625 µM; in [15], ≥ 1250 µM; in experiment [4], ≥ 625 µM; in experiment [16], ≥ 1250 µM; in experiment [17], ≥ 2500 µM; in experiment [18] it was ≥ 2500 µM. For the same molecule, the minimum inhibitory concentration (MIC) in [2] was 32 µM (≈ 29.7 µg/mL); in [19], ≥ 2500 µM; in experiment [20], ≥ 1250 µM; in [21], ≥ 1250 µM; in [22] it was ≥ 1250 µM; in [23] it was ≥ 1250 µM. The MIC in experiment [24] and in [25] was ≥ 1250 µM throughout.

Take `CC(C)C[C@H](NC(=O)[C@H](CC(C)C)NC(=O)[C@H](CC(N)=O)NC(=O)[C@H](CCC(=O)O)NC(=O)[C@H](CC(N)=O)NC(=O)[C@H](CC(C)C)NC(=O)[C@@H](N)C(C)C)C(=O)N[C@@H](C)C(=O)O` [VLNENLLA]: the MIC in [14], in experiment [15], in experiment [4], in experiment [16], in experiment [17] and in [18] was ≥ 2500 µM each time. The minimum inhibitory concentration (MIC) is 32 µM (≈ 28.3 µg/mL) in [2]; ≥ 2500 µM in experiment [19]; ≥ 1250 µM in experiment [20]; ≥ 1250 µM in experiment [21]; ≥ 1250 µM in experiment [22]; ≥ 1250 µM in experiment [23]. Further, the minimal inhibitory concentration (MIC) in [24] and in experiment [25] was ≥ 1250 µM throughout.

For `CC[C@H](C)[C@H](NC(=O)[C@H](Cc1c[nH]c2ccccc12)NC(=O)[C@@H]1CCCN1C(=O)[C@H](CCCCN)NC(=O)[C@H](CCSC)NC(=O)[C@H](C)NC(=O)[C@H](CCCCN)NC(=O)[C@H](CCC(N)=O)NC(=O)[C@H](Cc1cnc[nH]1)NC(=O)[C@H](CCC(N)=O)NC(=O)[C@H](Cc1ccc(O)cc1)NC(=O)[C@@H](N)C(C)C)C(=O)N[C@@H](CCC(N)=O)C(=O)N1CCC[C@H]1C(=O)N[C@@H](CCCCN)C(=O)N[C@H](C(=O)N[C@@H](CCCCN)C(=O)N[C@H](C(=O)N[C@H](C(=O)N1CCC[C@H]1C(=O)N[C@@H](Cc1ccc(O)cc1)C(=O)N[C@H](C(=O)N[C@@H](CCCN=C(N)N)C(=O)N[C@@H](Cc1ccc(O)cc1)C(=O)N[C@@H](CC(C)C)C(=O)O)C(C)C)[C@@H](C)CC)C(C)C)[C@@H](C)O` [VYQHQKAMKPWIQPKTKVIPYVRYL], the minimum inhibitory concentration (MIC) in experiment [4] is ≥ 312 µM; in experiment [5] it was ≥ 78.1 µM.
